{
  "source": "paper PMC4862738",
  "about": "(Biomacromolecules, 2016)",
  "target": "wt-PhaCCs (Chromobacterium sp. USM2, UniProt E1APK1)",
  "test": "continuous DTNB assay of CoA release, […] nm",
  "assay_type": "biochemical",
  "conditions": "KPi 100 mM pH 7.8, 30 °C, BSA 0.2 mg/mL, DTNB 0.3 mM, Triton X-100 50 mg/L",
  "data": [
    {"smiles": "C[C@@H](O)CC(=O)SCCNC(=O)CCNC(=O)[C@H](O)C(C)(C)COP(=O)(O)OP(=O)(O)OC[C@H]1O[C@@H](n2cnc3c(N)ncnc32)[C@H](O)[C@@H]1OP(=O)(O)O", "note": "[1a, HBCoA]", "values": [
      {"measurement": "continuous DTNB assay of CoA release, 412 nm", "value": "addition of BSA would increase SA of PhaCCs with HBCoA"}
    ]}
  ]
}
